Among the data in patent publication US20240208961A1, “EIF4E INHIBITORS AND USES THEREOF” (PIC Therapeutics, Inc., priority 2022, published 2024) are IC50 values, retold here.

The structures appear in SMILES notation.

The target of one test is T1, Human eIF4E (aa 28-217) (Homo sapiens, UniProt P06730).
T1 construct: Human eIF4E (aa 28-217) with a C-terminal His-tag; made in house
In words: 4G-eIF4E protein-based assay (TR-FRET, biotin labeled 4G2 peptide). It is filed as binding. The procedure:
Human eIF4E ([…]) with a C-terminal His-tag was expressed in E. coli in inclusion bodies. The protein was solubilized with 8 M urea and purified under denaturing conditions using nickel-charged HisTrap HP columns (GE Healthcare). The purified protein was then refolded by diluting in 20 mM Hepes pH 7.0, 0.5 M NaCl, 1 mM DTT, […], 0.5 M arginine plus 6 M urea, and then dialyzing overnight into the same buffer without the urea. The protein was further dialyzed into 20 mM Hepes, pH 6.5, 50 mM NaCl, 1 mM EDTA, 1 mM DTT, and concentrated using Hitrap SP sepharose FF columns (GE Healthcare). The concentrated protein was dialyzed into 20 mM Hepes, pH 7.0, 0.5M NaCl, 5 mM DTT and […], and stored at -80° C. until use. Test compounds (3.43 mM stock in DMSO) were diluted 2-fold in series in DMSO (10 concentration points). Compound solutions (1.2 μL/well) were added into black 384-well polypropylene microplates (Matrix, Thermal Scientific). […] The samples were incubated at room temperature (20-23° C.) for 4 hours. Biotin labeled 4G2 peptide ([…])-NH2, 1.75 μM stock in DMSO) was diluted to 0.13 μM in Assay Buffer (without DTT) and 5 μL/well was added. The samples were incubated at room temperature for 20 min. Five microliters per well of 15 nM Eu-streptavidin (Eu-SA, Perkin Elmer) and 96 nM Allophycocyanin (APC)-anti His antibody (Columbia Biosciences) in Assay Buffer (without DTT) were then added and the samples were incubated at room temperature for 20 min. Assay signals were monitored by reading excitation at 340 nm and emission fluorescence at 615 nm and 665 nm on an Envision reader (Perkin Elmer). Normalized TR-FRET (time-resolved fluorescence resonance energy transfer) assay signal (Rn) was calculated by the formula: […] C=(Ac-Ba)/(Dc-Bd) • Where Ac is the fluorescence intensity of 1.5 nM Eu-SA in the assay buffer at 665 nm. IC50 values were calculated using xLFit program (IDBS).
On the technique in general: TR-FRET usually uses a lanthanide donor and a delayed reading to cut background.

In a further test the test system is ZR-75-1. In words: Cell viability assay, adherent cell line, 5 day Alamar Blue (Example 8): ZR-75-1. It is filed as cell-based. Particulars: Homo sapiens, 120 h, ZR-75-1, Breast Cancer Cell Viability. The procedure:
Cell viability assays were performed on certain compounds of the disclosure, according to the following procedure.
Cell line specific media conditions used:
The procedure for adherent cell line compound screening was as follows:
• Cells were seeded in 96-well cell culture treated tissue culture plates: ZR-75-1, NIHOVCAR3, T47D, and LOVO cells 4000 cells/well; and HPAFII 3000 cell/well
Day 3: Compound Dilution and Dosing
• 5-fold serial dilution (8 point) of each compound in DMSO 0-25 mM in compound storage plates was prepared (stored at −80° C. if not to be used immediately). • Cells were rinsed with 1% FBS Media (appropriate to cell line as described above) and replaced with 87.5 μL media prior to dosing. HPAFII was screened in normal 10% FBS Media. • DMSO compound dilution series was diluted in 1% FBS media (appropriate to cell line as described above)—2 μL in 248 μL to give an 8× final concentration. • Cells were dosed 12.5 μL/well in triplicate to give final dose curved on cells 0-25 μM. • Media blank 100 μL/well×8 was set up. • All plates were incubated at 37° C.
Day 8: 5 Day Viability Assay
• Alamar Blue viability reagent was added (10 μL per well) and incubated for 3 hours at 37° C. prior to fluorescence detection (Ex560 nm/Em590 nm) on a Varioskan Lux multimode plate reader.
Results from cell viability assays are summarized in Table 23, wherein A represents IC50≤1 μM; B represents 1 μM<IC50≤8 μM; and C represents IC50>8 μM. Blank cells indicate that the compound was not tested in a particular assay.
On the technique in general: Alamar Blue is a resazurin reagent that responds to reducing activity.

T1 sequence (P06730 28-217): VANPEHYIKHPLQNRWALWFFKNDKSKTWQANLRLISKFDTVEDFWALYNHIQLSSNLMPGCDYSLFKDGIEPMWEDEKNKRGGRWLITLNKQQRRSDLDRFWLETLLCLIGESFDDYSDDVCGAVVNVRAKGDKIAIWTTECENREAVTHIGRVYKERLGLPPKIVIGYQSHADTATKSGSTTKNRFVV

What is called IC50 is the concentration at which inhibition is half-maximal. Consider `CC(C)Cc1sc(Nc2ncc(-c3cccs3)cc2C(=O)O)nc1C1=CCOCC1` [Compound I-1], for which the results for the IC50 on Human eIF4E (aa 28-217) and with ZR-75-1 were 0.5 to 1 µM and no more than 1 µM, respectively.
As to `CC(C)Cc1sc(Nc2ncc(-c3cccs3)cc2C(=O)O)nc1C1=CCCCC1` [Compound I-2], the concentration for half-maximal inhibition (IC50) in the test on ZR-75-1 was no more than 1 µM.
As for `CC(C)Cc1sc(Nc2ncc(-c3cccs3)cc2C(=O)O)nc1C1CCCCC1` [Compound I-3], the 50% inhibitory concentration (IC50) was 0.5 to 1 µM on Human eIF4E (aa 28-217) and no more than 1 µM in the test on ZR-75-1.
As to `CC(C)Cc1sc(Nc2ncc(-c3cccs3)cc2C(=O)O)nc1C1=CCCC1` [Compound I-8], the IC50 against Human eIF4E (aa 28-217) was 0.5 to 1 µM; with ZR-75-1, no more than 1 µM.
For `CC(C)Cc1sc(Nc2ncc(-c3cccs3)cc2C(=O)O)nc1C(C)(C)C` [Compound I-11] the same measures were 0.5 to 1 µM and no more than 1 µM.
For `CC(C)Cc1sc(Nc2ncc(-c3cccs3)cc2C(=O)O)nc1C1(C)CCCCC1` [Compound I-27] the same measures were no more than 0.5 µM and no more than 1 µM.
For `CC(C)Cc1sc(Nc2ncc(-c3cccs3)cc2C(=O)O)nc1C1CCC(F)(F)CC1` [Compound I-29], the IC50 is 0.5 to 1 µM against Human eIF4E (aa 28-217) and no more than 1 µM with ZR-75-1.
